A value given as a limit tells only on which side of the number the result lay.

On to `COc1ccc2c(c1)c(/C=C1\Oc3cc(O)ccc3C1=O)cn2C` [Aurone 3k, (2Z)-6-Hydroxy-2-[(5-methoxy-1-methyl-1H-indol-3-yl)methylene]-1-benzofuran-3(2H)-one], for which the melting point (in general, the temperature, or range, at which the solid turns liquid) lay within 301 to 303 °C.
`CCn1cc(/C=C2\Oc3cc(O)ccc3C2=O)c2cc(OC)ccc21` [Aurone 3l, (2Z)-2-[(1-Ethyl-5-methoxy-1H-indol-3-yl)methylene]-6-hydroxy-1-benzofuran-3(2H)-one] gave a melting point of 265 to 267 °C.
Then `CCn1cc(/C=C2\Oc3cc(O)ccc3C2=O)c2ccccc21` [Aurone 3m, (2Z)-2-[(1-Ethyl-1H-indol-3-yl)methylene]-6-hydroxy-1-benzofuran-3(2H)-one], with 278 to 280 °C; and `Cc1c(O)ccc2c1O/C(=C\c1cn(C)c3ccccc13)C2=O` [Aurone 3n, (2Z)-6-Hydroxy-7-methyl-2-[(1-methyl-1H-indol-3-yl)methylene]-1-benzofuran-3(2H)-one], with 293 to 295 °C; and `COc1ccc2c(c1)c(/C=C1\Oc3c(ccc(O)c3C)C1=O)cn2C` [Aurone 3o, (2Z)-6-Hydroxy-2-[(5-methoxy-1-methyl-1H-indol-3-yl)methylene]-7-methyl-1-benzofuran-3(2H)-one], with 297 to 299 °C.
For `Cn1cc(/C=C2\Oc3cc(OCc4ccccc4F)ccc3C2=O)c2ccccc21` [Aurone 4d, (2Z)-6-[(2-Fluorobenzyl)oxy]-2-[(1-methyl-1H-indol-3-yl)methylene]-1-benzofuran-3(2H)-one] the value was 241 to 243 °C; for `Cn1cc(/C=C2\Oc3cc(OCc4ccccc4Cl)ccc3C2=O)c2ccccc21` [Aurone 4e, (2Z)-6-[(2-Chlorobenzyl)oxy]-2-[(1-methyl-1H-indol-3-yl)methylene]-1-benzofuran-3(2H)-one], 206 to 208 °C; for `Cn1cc(/C=C2\Oc3cc(OCc4c(F)cccc4F)ccc3C2=O)c2ccccc21` [Aurone 4f, (2Z)-6-[(2,6-Difluorobenzyl)oxy]-2-[(1-methyl-1H-indol-3-yl)methylene]-1-benzofuran-3(2H)-one], above 220 °C.
Then `Cn1cc(/C=C2\Oc3cc(OCc4c(Cl)cccc4Cl)ccc3C2=O)c2ccccc21` [Aurone 4g, (2Z)-6-[(2,6-Dichlorobenzyl)oxy]-2-[(1-methyl-1H-indol-3-yl)methylene]-1-benzofuran-3(2H)-one], with 247 to 249 °C; and `Cn1cc(/C=C2\Oc3cc(OCc4c(F)cccc4Cl)ccc3C2=O)c2ccccc21` [Aurone 4h, (2Z)-6-[(2-Chloro-6-fluorobenzyl)oxy]-2-[(1-methyl-1H-indol-3-yl)methylene]-1-benzofuran-3(2H)-one], with 225 to 227 °C; and `Cc1c(OCc2c(Cl)cccc2Cl)ccc2c1O/C(=C\c1cn(C)c3ccccc13)C2=O` [Aurone 4i, (2Z)-6-[(2,6-Dichlorobenzyl)oxy]-7-methyl-2-[(1-methyl-1H-indol-3-yl)methylene]-1-benzofuran-3(2H)-one], with 232 to 234 °C.
In turn, `COc1ccc2c(c1)c(/C=C1\Oc3cc(OCc4ccc(F)cc4Cl)ccc3C1=O)cn2C` [Aurone 4j, (2Z)-6-[(2-Chloro-4-fluorobenzyl)oxy]-2-[(5-methoxy-1-methyl-1H-indol-3-yl)methylene]-1-benzofuran-3(2H)-one] gave a melting point of 184 to 186 °C.
As to `COc1ccc2c(c1)c(/C=C1\Oc3cc(OCc4c(F)cccc4Cl)ccc3C1=O)cn2C` [Aurone 4k, (2Z)-6-[(2-Chloro-6-fluorobenzyl)oxy]-2-[(5-methoxy-1-methyl-1H-indol-3-yl)methylene]-1-benzofuran-3(2H)-one], the melting point was in the range of 200 to 202 °C.
In turn, `COc1ccc2c(c1)c(/C=C1\Oc3cc(OCc4c(Cl)cccc4Cl)ccc3C1=O)cn2C` [Aurone 4l, (2Z)-6-[(2,6-Dichlorobenzyl)oxy]-2-[(5-methoxy-1-methyl-1H-indol-3-yl)methylene]-1-benzofuran-3(2H)-one] came in with a melting point of 233 to 235 °C.
Then `COc1ccc2c(c1)c(/C=C1\Oc3c(ccc(OCc4c(Cl)cccc4Cl)c3C)C1=O)cn2C` [Aurone 4m, (2Z)-6-[(2,6-Dichlorobenzyl)oxy]-2-[(5-methoxy-1-methyl-1H-indol-3-yl)methylene]-7-methyl-1-benzofuran-3(2H)-one], with 241 to 243 °C; and `CCn1cc(/C=C2\Oc3cc(OCc4c(Cl)cccc4Cl)ccc3C2=O)c2cc(OC)ccc21` [Aurone 4o, (2Z)-6-[(2,6-Dichlorobenzyl)oxy]-2-[(1-ethyl-5-methoxy-1H-indol-3-yl)methylene]-1-benzofuran-3(2H)-one], with 211 to 213 °C.
For `CCn1cc(/C=C2\Oc3cc(OCc4c(F)cccc4Cl)ccc3C2=O)c2ccccc21` [Aurone 4p, (2Z)-6-[(2-Chloro-6-fluorobenzyl)oxy]-2-[(1-ethyl-1H-indol-3-yl)methylene]-1-benzofuran-3(2H)-one] the value was 198 to 200 °C; for `CCn1cc(/C=C2\Oc3cc(OCc4c(Cl)cccc4Cl)ccc3C2=O)c2ccccc21` [Aurone 4q, (2Z)-6-[(2,6-Dichlorobenzyl)oxy]-2-[(1-ethyl-1H-indol-3-yl)methylene]-1-benzofuran-3(2H)-one], 213 to 215 °C; for `CN(C)c1ccc(/C=C2\Oc3cc(OCc4ccccc4Cl)ccc3C2=O)c(Cl)c1` [Aurone 4s, (2Z)-6-[(2-Chlorobenzyl)oxy]-2-[2-chloro-4-(dimethylamino)benzylidene]-1-benzofuran-3(2H)-one], above 220 °C.
For `CCN(CC)c1ccc(/C=C2\Oc3cc(OCc4cc(F)ccc4F)ccc3C2=O)c(OC)c1` [Aurone 4t, (2Z)-6-[(2,5-Difluorobenzyl)oxy]-2-[4-(diethylamino)-2-methoxybenzylidene]-1-benzofuran-3(2H)-one] the value was 184 to 186 °C.

The record behind these values is patent US20200354348A1, “SEMISYNTHETIC AURONES AND METHODS OF USE THEREOF” (University of Kentucky Research Foundation, priority 2018, published 2020).
